Results published in PMC4946363 (Cancer Research and Treatment : Official Journal of Korean …, 2016).
Counter-ions that a name gives are not always drawn.

Key:
[1] = oral; cited from earlier work
[2] = system: myeloid blast crisis and lymphoid blast crisis; details: cited from earlier work
[3] = Stability of imatinib in the LC-MS/MS bioanalytical method validation
CML = CML patients; cited from earlier work

Which “Time to attain peak plasma concentration (Cmax)” value [1] does the source give for `Cc1ccc(NC(=O)c2ccc(CN3CCN(C)CC3)cc2)cc1Nc1nccc(-c2cccnc2)n1` [imatinib] here?
Its value is 2 to 4 h.

And the “Duration of remission from the commencement of therapy” value ([2]; responding patients continued on imatinib treatment)?
The value was 101 to 349 days.

And the “In-injector stability, % change, HQC” value ([3]; 2-8°C, ~77 hr, high quality control)?
The value was “–5.6%”.

What about the “In-injector stability, % change, LQC” value ([3]; 2-8°C, ~77 hr, low quality control) of the same molecule?
The value was 4.6%.

And the “Freeze thaw stability, % change, HQC” value ([3]; 3 cycles, high quality control)?
Its value is “–6.1%”.

And the “Freeze thaw stability, % change, LQC” value ([3]; 3 cycles, low quality control)?
Its value is 2.2%.

What about the “Long-term stability, accuracy, HQC” value ([3]; 70 days, high quality control) of the same molecule?
The value was 97.4%.

What about the “Long-term stability, accuracy, LQC” value ([3]; 70 days, low quality control) of the same molecule?
Its value is 95.7%.

And the “Long-term stability, accuracy, MQC” value ([3]; 70 days, medium quality control)?
Its value is 101.5%.

And the “Bench top stability, % change, HQC” value ([3]; room temperature, ~7 hr, high quality control)?
Its value is “–7.2%”.

What about the “Bench top stability, % change, LQC” value ([3]; room temperature, ~7 hr, low quality control) of the same molecule?
Its value is 10.2%.

What about the “Inter-patient CV, lnAUC0-24” value (ln-transformed AUC0-24) of the same molecule?
The value was 25.2%.

What about the “Intra-patient CV, lnAUC0-24” value (ln-transformed AUC0-24, test and reference together) of the same molecule?
Its value is 12.3%.

What about the “Inter-patient CV, lnCmax” value (ln-transformed Cmax) of the same molecule?
Its value is 20.4%.

What about the “Intra-patient CV, lnCmax” value (ln-transformed Cmax, test and reference together) of the same molecule?
The value was 13.6%.

With interferon-α [IFN-α] as the molecule, how does the Cytogenetic remission (CML) read?
The Cytogenetic remission was 6%-20%.

With `Cc1ccc(NC(=O)c2ccc(CN3CCN(C)CC3)cc2)cc1Nc1nccc(-c2cccnc2)n1` [imatinib mesylate] as the molecule, how does the “Response rate, lymphoid blast crisis” value ([2]; oral 300-1,000 mg/day, 14 out of 20 patients) read?
The value was 70%.

What about the “Response rate, myeloid blast crisis” value ([2]; oral 300-1,000 mg/day, 21 out of 38 patients) of the same molecule?
The value was 55%.

What about the “Complete hematologic response, myeloid blast crisis” value ([2]; oral 300-1,000 mg/day) of the same molecule?
Its value is 19%.

And the “Complete hematologic responses, lymphoid blast crisis” value ([2]; oral 300-1,000 mg/day)?
The value was 20%.
